For the first experiment, the target named is bovine p110α (Bos taurus, UniProt P32871). Put plainly: Inhibition of PI3K (p110α subtype). Type of experiment: biochemical.
bovine p110α, sequence (P32871 whole entry): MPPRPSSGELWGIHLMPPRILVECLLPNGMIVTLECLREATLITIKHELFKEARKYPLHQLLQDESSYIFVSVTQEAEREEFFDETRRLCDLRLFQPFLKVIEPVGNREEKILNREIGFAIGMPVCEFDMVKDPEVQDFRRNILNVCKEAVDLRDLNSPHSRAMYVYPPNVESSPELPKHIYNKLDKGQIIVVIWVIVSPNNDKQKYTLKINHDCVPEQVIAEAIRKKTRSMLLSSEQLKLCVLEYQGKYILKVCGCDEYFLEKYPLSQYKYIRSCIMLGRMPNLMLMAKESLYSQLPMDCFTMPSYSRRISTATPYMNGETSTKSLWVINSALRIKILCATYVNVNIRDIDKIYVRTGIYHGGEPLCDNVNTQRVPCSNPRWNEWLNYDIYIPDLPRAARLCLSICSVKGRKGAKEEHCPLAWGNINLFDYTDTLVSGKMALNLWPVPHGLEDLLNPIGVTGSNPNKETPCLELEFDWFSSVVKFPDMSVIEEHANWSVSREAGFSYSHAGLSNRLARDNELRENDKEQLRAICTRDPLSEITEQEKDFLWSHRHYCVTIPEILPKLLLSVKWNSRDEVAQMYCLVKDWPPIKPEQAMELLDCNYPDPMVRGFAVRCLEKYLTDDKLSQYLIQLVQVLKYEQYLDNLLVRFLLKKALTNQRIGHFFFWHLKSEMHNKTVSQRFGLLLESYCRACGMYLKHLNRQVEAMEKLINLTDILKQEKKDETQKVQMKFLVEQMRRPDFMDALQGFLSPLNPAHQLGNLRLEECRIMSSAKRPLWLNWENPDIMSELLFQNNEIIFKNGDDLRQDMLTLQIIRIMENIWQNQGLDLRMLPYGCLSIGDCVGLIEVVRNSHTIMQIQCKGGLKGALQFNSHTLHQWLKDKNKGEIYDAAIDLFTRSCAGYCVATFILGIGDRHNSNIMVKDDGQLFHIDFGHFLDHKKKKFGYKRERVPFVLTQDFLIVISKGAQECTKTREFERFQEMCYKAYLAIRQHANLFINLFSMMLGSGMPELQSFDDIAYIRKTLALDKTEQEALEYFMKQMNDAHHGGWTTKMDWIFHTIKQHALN
Conditions: not given
As a reminder, the IC50 is the concentration that gives 50% inhibition. The molecule `Nc1ccc(C(=O)Nc2cccc(-c3nc(N4CCOCC4)c4oc5ncccc5c4n3)c2)cn1` [Co 17, 6-amino-3′-(4-morpholinopyrido[3′,2′:4,5]furo[3,2-d]pyrimidin-2-yl)nicotinanilide] had an IC50 of less than 1000 nM.

Still in this experiment, the particulars now being: bovine p110α, 37° C. for 15 minutes; read-out: IC50, p110α subtype inhibition.
For the molecule `O=C(Nc1cccc(-c2nc(N3CCOCC3)c3oc4ncccc4c3n2)c1)c1ccccn1` [Co 10], the IC50 was less than 1000 nM.

The next experiment relates to A375 cells. The experiment in a line: Melanoma cell growth inhibition (Alamar Blue). Type of experiment: cell-based. Particulars: Homo sapiens, A-375, incubation for over 46 hours. The protocol: A375 cells from a melanoma cell line were cultured in DMEM medium (GIBCO) supplemented with 10% fetal bovine serum. A375 cells at 10,000 cells/100 μl were added to a 96 well plate which contained 1 μl/well of the test compounds (final concentration of 0.001˜30 μM). After incubation for over 46 hours, Alamar Blue reagent was added to the medium (10 μl/well).
(In general: The colour change of resazurin is a common sign of viable cells or microbes.)
In the case of `COc1ccc2nc(-c3cccc(O)c3)nc(N3CCOCC3)c2c1` [Co 186, 3-(6-methoxy-4-morpholinoquinazolin-2-yl)phenol], the IC50 was in the range of 330 to 4260 nM. `Oc1cccc(-c2nc(N3CCOCC3)c3cnccc3n2)c1` [Co 164, 3-(4-morpholinopyrido[4,3-d]pyrimidin-2-yl)phenol]: the IC50 was 330 to 4260 nM.

`Oc1cccc(-c2nc(N3CCOCC3)c3ccncc3n2)c1` [Co 174, 3-(4-morpholinopyrido[3,4-d]pyrimidin-2-yl)phenol] showed an IC50 of 330 to 4260 nM.

`Oc1cccc(-c2nc(N3CCOCC3)c3oc4ncccc4c3n2)c1` [Co 50, 3-(4-morpholinopyrido[3′,2′:4,5]furo[3,2-d]pyrimidin-2-yl)phenol] gave an IC50 of 330 to 4260 nM. On the same count and under the same terms, under `c1cc(OCCN2CCNCC2)cc(-c2nc(N3CCOCC3)c3oc4ncccc4c3n2)c1` [Co 69, 4-morpholino-2-[3-(2-piperazin-1-ylethoxy)phenyl]pyrido[3′,2′:4,5]furo[3,2-d]pyrimidine] stands 330 to 4260 nM; under `Oc1cccc(-c2nc(N3CCOCC3)c3sccc3n2)c1` [Co 190, 3-(4-morpholinothieno[3,2-d]pyrimidin-2-yl)phenol], 330 to 4260 nM. In turn, `Oc1cccc(-c2nc(N3CCOCC3)c3ncccc3n2)c1` [Co 172, 3-(4-morpholinopyrido[3,2-d]pyrimidin-2-yl)phenol] returned an IC50 of 330 to 4260 nM. As for `Oc1cccc(-c2nc(N3CCOCC3)c3nccnc3n2)c1` [Co 191, 3-(4-morpholinopteridin-2-yl)phenol], the IC50 was in the range of 330 to 4260 nM.

`Nc1ccc(-c2nc(N3CCOCC3)c3oc4ncccc4c3n2)cc1` [Co 33, 4-(4-morpholinopyrido[3′,2′:4,5]furo[3,2-d]pyrimidin-2-yl)aniline]: the IC50 lay within 330 to 4260 nM.

Source of the values: patent publication US8067586B2, “Fused heteroaryl derivatives” (Astellas Pharma Inc., priority 2000, dated 2011).
